Measured values taken from patent publication US20080045537A1, “Chemical Compounds” (priority 2004, published 2008).

Tested on: HIV-1 IIIB (T-tropic, CXCR4 utilizing)
Assay: HOS HIV-1 infectivity assay
Assay type: cell-based
Settings: Human immunodeficiency virus 1, IIIB, read-out: Activity Level
Method: Compounds were profiled against two HIV-1 viruses, the M-tropic (CCR5 utilizing) Ba-L strain and the T-tropic (CXCR4 utilizing) IIIB strain. Both viruses were propagated in human peripheral blood lymphocytes. Compounds were tested for there ability to block infection of the HOS cell line (expressing hCXCR4/hCCR5/hCD4/pHIV-LTR-luciferase) by either HIV-1 Ba-L or HIV-1 IIIB. Compound cytotoxicity was also examined in the absence of virus addition.
HOS cells (expressing hCXCR4/hCCR5/hCD4/pHIV-LTR-luciferase) were harvested and diluted in Dulbeccos modified Eagles media supplemented with 2% FCS and non-essential amino acid to a concentration of 60,000 cells/ml. The cells were plated into 96-well plates (100 ul per well) and the plates were placed in a tissue culture incubator (37° C.; 5% CO2/95% air) for a period of 24 h.
Subsequently, 50 ul of the desired drug solution (4 times the final concentration) was added to each well and the plates were returned to the tissue culture incubator (37° C.; 5% CO2/95% air) for 1 h. Following this incubation 50 ul of diluted virus was added to each well (approximately 2 million RLU per well of virus). The plates were returned to the tissue culture incubator (37° C.; 5% CO2/95% air) and were incubated for a further 96 h.
Following this incubation the endpoint for the virally infected cultures was quantified following addition of Steady-Glo Luciferase assay system reagent (Promega, Madison, Wis.). Cell viability or non-infected cultures was measured using a CellTiter-Glo luminescent cell viability assay system (Promega, Madison, Wis.). All luminescent readouts are performed on a Topcount luminescence detector (Packard, Meridien, Conn.).

Row | Structure (SMILES) | IC50 [nM]
1 | CN(Cc1nc2c(C(=O)N3C[C@@H]4C[C@H]3CN4)cccc2[nH]1)C1CCCc2cccnc21 (stereo partly drawn) [Example 92, N-({4-[(1S,4S)-2,5-diazabicyclo[2.2.1]hept-2-ylcarbonyl]-1H-benzimidazol-2-yl}methyl)-N-methyl-5,6,7,8-tetrahydro-8-quinolinamine] | < 100

Same assay, conditions: Human immunodeficiency virus 1, IIIB; as determined by the infectivity assay; strain not stated in Table 2; read-out: Activity Level

Row | IC50 [nM] | Structure (SMILES)
2 | 500 to 10000 | CN(Cc1nc2c(C(=O)NCCc3ccncc3)cccc2[nH]1)C1CCCc2cccnc21 (stereo not drawn) [Example 71, 2-{[Methyl(5,6,7,8-tetrahydro-8-quinolinyl)amino]methyl}-N-[2-(4-pyridinyl)ethyl]-1H-benzimidazole-4-carboxamide]
3 | 500 to 10000 | CN(Cc1nc2c(C(=O)NCCc3cccnc3)cccc2[nH]1)C1CCCc2cccnc21 (stereo not drawn) [Example 69, 2-{[Methyl(5,6,7,8-tetrahydro-8-quinolinyl)amino]methyl}-N-[2-(3-pyridinyl)ethyl]-1H-benzimidazole-4-carboxamide]
4 | 100 to 500 | CN(Cc1nc2c(NC(=O)C(C)(C)N)cccc2[nH]1)C1CCCc2cccnc21 (stereo not drawn) [Example 105, 2-Methyl-N-1-(2-{[methyl(5,6,7,8-tetrahydro-8-quinolinyl)amino]methyl}-1H-benzimidazol-4-yl)alaninamide]
5 | < 100 | CN(C)CCCc1cccc2[nH]c(CN(C)C3CCCc4cccnc43)nc12 (stereo not drawn) [Example 94, N-({4-[3-(Dimethylamino)propyl]-1H-benzimidazol-2-yl}methyl)-N-methyl-5,6,7,8-tetrahydro-8-quinolinamine]
6 | < 100 | CN1CCN(c2cccc3nc(CN(C)[C@H]4CCCc5cccnc54)[nH]c23)CC1 [Example 133B, (8S)—N-Methyl-N-{[4-(4-methyl-1-piperazinyl)-1H-benzimidazol-2-yl]methyl}-5,6,7,8-tetrahydro-8-quinolinamine]
7 | 500 to 10000 | CN(Cc1nc2cc(C(=O)N3CCN(C(=O)OCc4ccccc4)CC3)ccc2[nH]1)C1CCCc2cccnc21 (stereo not drawn) [Example 56, Phenylmethyl 4-[(2-{[methyl(5,6,7,8-tetrahydro-8-quinolinyl)amino]methyl}-1H-benzimidazol-5-yl)carbonyl]-1-piperazinecarboxylate]
8 | 500 to 10000 | COCCNC(=O)c1cccc2nc(CN(C)C3CCCc4cccnc43)[nH]c12 (stereo not drawn) [Example 64, N-[2-(Methyloxy)ethyl]-2-{[methyl(5,6,7,8-tetrahydro-8-quinolinyl)amino]methyl}-1H-benzimidazole-4-carboxamide]
9 | < 100 | CCN(Cc1nc2cccc(N3CCN(C)CC3)c2n1C)C1CCCc2cccnc21 (stereo not drawn) [Example 154, N-Ethyl-N-{[1-methyl-7-(4-methyl-1-piperazinyl)-1H-benzimidazol-2-yl]methyl}-5,6,7,8-tetrahydro-8-quinolinamine]
10 | < 100 | CN1CCN(c2cccc3nc(CN(CC4CC4)[C@@H]4CCCc5cccnc54)[nH]c23)CC1 [Example 139, (8R)—N-(Cyclopropylmethyl)-N-{[4-(4-methyl-1-piperazinyl)-1H-benzimidazol-2-yl]methyl}-5,6,7,8-tetrahydro-8-quinolinamine]
11 | < 100 | CN1CCN(c2cccc3nc(CN(CCO)[C@H]4CCCc5cccnc54)[nH]c23)CC1 [Example 148, 2-{{[4-(4-Methyl-1-piperazinyl)-1H-benzimidazol-2-yl]methyl}[(8S)-5,6,7,8-tetrahydro-8-quinolinyl]amino}ethanol]
12 | < 100 | CN(CCc1c[nH]cn1)C(=O)c1cccc2[nH]c(CN(C)C3CCCc4cccnc43)nc12 (stereo not drawn) [Example 90, N-[2-(1H-imidazol-4-yl)ethyl]-N-methyl-2-{[methyl(5,6,7,8-tetrahydro-8-quinolinyl)amino]methyl}-1H-benzimidazole-4-carboxamide]
13 | 100 to 500 | CCN(Cc1nc2cc(C(=O)N3CCN(C)CC3)ccc2[nH]1)C1CCCc2cccnc21 (stereo not drawn) [Example 48, N-Ethyl-N-({5-[(4-methyl-1-piperazinyl)carbonyl]-1H-benzimidazol-2-yl}methyl)-5,6,7,8-tetrahydro-8-quinolinamine]
14 | < 100 | CN1CCN(c2cccc3nc(CN(C)[C@H]4CCCc5cccnc54)n(C)c23)CC1 [Example 160, (8S)—N-Methyl-N-{[1-methyl-7-(4-methyl-1-piperazinyl)-1H-benzimidazol-2-yl]methyl}-5,6,7,8-tetrahydro-8-quinolinamine]
15 | < 100 | CN1CCN(c2cccc3nc(CN(C)[C@@H]4CCCc5cccnc54)n(C)c23)CC1 [Example 161, (8R)—N-Methyl-N-{[1-methyl-7-(4-methyl-1-piperazinyl)-1H-benzimidazol-2-yl]methyl}-5,6,7,8-tetrahydro-8-quinolinamine]
16 | < 100 | CCN(Cc1nc2cccc(N3CCN4CCC[C@@H]4C3)c2[nH]1)[C@H]1CCCc2cccnc21 [Example 142, (8S)—N-Ethyl-N-({4-[(8aR)-hexahydropyrrolo[1,2-a]pyrazin-2(1H)-yl]-1H-benzimidazol-2-yl}methyl)-5,6,7,8-tetrahydro-8-quinolinamine]
17 | < 100 | CN1CCN(c2cccc3nc(CN(C)C4CCCc5cccnc54)n(C)c23)CC1 (stereo not drawn) [Example 153, N-Methyl-N-{[1-methyl-7-(4-methyl-1-piperazinyl)-1H-benzimidazol-2-yl]methyl}-5,6,7,8-tetrahydro-8-quinolinamine]
18 | 100 to 500 | CN(Cc1nc2cc(C(=O)NCC(C)(C)CN)ccc2[nH]1)C1CCCc2cccnc21 (stereo not drawn) [Example 54, N-(3-Amino-2,2-dimethylpropyl)-2-{[methyl(5,6,7,8-tetrahydro-8-quinolinyl)amino]methyl}-1H-benzimidazole-5-carboxamide]
19 | 500 to 10000 | CN(Cc1nc2cccc(C(=O)N3CCN(Cc4ccccc4)CC3)c2[nH]1)C1CCCc2cccnc21 (stereo not drawn) [Example 62, N-Methyl-N-[(4-{[4-(phenylmethyl)-1-piperazinyl]carbonyl}-1H-benzimidazol-2-yl)methyl]-5,6,7,8-tetrahydro-8-quinolinamine]
20 | < 100 | Cn1c(CN(CCCO)[C@H]2CCCc3cccnc32)nc2cccc(N3CCNCC3)c21 [Example 179, 3-{{[1-Methyl-7-(1-piperazinyl)-1H-benzimidazol-2-yl]methyl}[(8S)-5,6,7,8-tetrahydro-8-quinolinyl]amino-}1-propanol]
21 | 500 to 10000 | CN(Cc1nc2cc(C(=O)NCC3CCCCC3)ccc2[nH]1)C1CCCc2cccnc21 (stereo not drawn) [Example 41, N-(Cyclohexylmethyl)-2-{[methyl(5,6,7,8-tetrahydro-8-quinolinyl)amino]methyl}-1H-benzimidazole-5-carboxamide]
22 | 500 to 10000 | CN(Cc1nc2cc(C(=O)NCC3CCNCC3)ccc2[nH]1)C1CCCc2cccnc21 (stereo not drawn) [Example 38, 2-{[Methyl(5,6,7,8-tetrahydroquinolin-8-yl)amino]methyl}-N-(piperidin-4-ylmethyl)-1H-benzimidazole-5-carboxamide]
23 | < 100 | Cn1c(CN(CCO)[C@H]2CCCc3cccnc32)nc2cccc(N3CCNCC3)c21 [Example 178, 2-{{[1-Methyl-7-(1-piperazinyl)-1H-benzimidazol-2-yl]methyl}[(8S)-5,6,7,8-tetrahydro-8-quinolinyl]amino}ethanol]
24 | 100 to 500 | CN(Cc1nc2cccc(C(=O)NCCCCCN)c2[nH]1)C1CCCc2cccnc21 (stereo not drawn) [Example 61, N-(5-Aminopentyl)-2-{[methyl(5,6,7,8-tetrahydro-8-quinolinyl)amino]methyl}-1H-benzimidazole-4-carboxamide]
25 | 100 to 500 | CN(C)CCCNc1cccc2[nH]c(CN(C)C3CCCc4cccnc43)nc12 (stereo not drawn) [Example 106, [3-(Dimethylamino)propyl](2-{[methyl(5,6,7,8-tetrahydro-8-quinolinyl)amino]methyl}-1H-benzimidazol-4-yl)amine]
26 | < 100 | CN(Cc1nc2cccc(N3CCN4CCC[C@@H]4C3)c2[nH]1)[C@H]1CCCc2cccnc21 [Example 141, (8S)—N-({4-[(8aR)-hexahydropyrrolo[1,2-a]pyrazin-2(1H)-yl]-1H-benzimidazol-2-yl}methyl)-N-methyl-5,6,7,8-tetrahydro-8-quinolinamine]
27 | < 100 | CN1CCCN(C(=O)c2cccc3[nH]c(CN(C)C4CCCc5cccnc54)nc23)CC1 (stereo not drawn) [Example 86, N-Methyl-N-({4-[(4-methylhexahydro-1H-1,4-diazepin-1-yl)carbonyl]-1H-benzimidazol-2-yl}methyl)-5,6,7,8-tetrahydro-8-quinolinamine]
28 | < 100 | CN1CCN(c2cccc3nc(C(C)(C)NC4CCCc5cccnc54)[nH]c23)CC1 (stereo not drawn) [Example 114, N-{1-methyl-1-[4-(4-methyl-1-piperazinyl)-1H-benzimidazol-2-yl]ethyl}-5,6,7,8-tetrahydro-8-quinolinamine]
29 | 100 to 500 | CN1CCN(CCCNC(=O)c2cccc3[nH]c(CN(C)C4CCCc5cccnc54)nc23)CC1 (stereo not drawn) [Example 73, N-[3-(4-Methyl-1-piperazinyl)propyl]-2-{[methyl(5,6,7,8-tetrahydro-8-quinolinyl)amino]methyl}-1H-benzimidazole-4-carboxamide]
30 | < 100 | CN(Cc1nc2c(CCCN3CCCCC3)cccc2[nH]1)C1CCCc2cccnc21 (stereo not drawn) [Example 96, N-methyl-N-({4-[3-(1-piperidinyl)propyl]-1H-benzimidazol-2-yl}methyl)-5,6,7,8-tetrahydro-8-quinolinamine]
